Here are results for one compound from patent publication US20210063414A1, “METHODS FOR PREVENTING AND/OR TREATING BONE LOSS CONDITIONS BY MODULATING IRISIN” (Dana-Farber Cancer Institute, Inc., priority 2018, published 2021).

This test deals with sclerostin. Kind of test: Irisin injection in mice: sclerostin mRNA in osteocyte-enriched bones and plasma sclerostin protein (ELISA). The format is in vivo. The note with it: co-injection of 1 mg/kg inhibitor with irisin. As to the method: 8 weeks old mice were injected daily with indicated dose of irisin for 6 days. […] were collected and treated with collagenase to yield osteocyte-enriched bones. Sclerostin mRNA level from osteocyte-enriched tibia was analyzed by qPCR (FIG. 7A). Cyclophilin was used as a house-keeping gene. Plasma was collected to analyze the circulating sclerostin protein level by ELISA assay (FIG. 7B). Data are represented as mean±SEM. For FIG. 7A and FIG. 7B, n=5 animals/group. * indicates p<0.05, and *** indicates p<0.001.
Certain materials and methods were used to generate the results described herein. For example, the data shown in FIG. 1A resulted from MLO-Y4 (an osteocyte-like cell line) cells treated with the indicated concentration of irisin and hydrogen peroxide for 4 hours. Cells were stained with Hoechst 33342 (ThermoFisher Scientific, catalog number H3570) and Eth-D1 (ThermoFisher Scientific, catalog number E1169) and analyzed to determine the percentage of cell death using ImageJ. […] Co-precipitated irisin was analyzed by immunoblot analysis against flag tag (Sigma Aldrich, catalog number A8592). The data shown in FIGS. 5A and 5B were generated from MLO-Y4 cells treated and analyzed as in the experiments used to generate the data shown in FIG. 2D, except that pre-treatment of 100 nM RGDS (FIG. 5A) or echistatin (R & D Systems Inc., catalog number 3202/100U) (FIG. 5B) for 10 minutes was performed before irisin treatment. […] RNAs were extracted from the cells and the sclerostin mRNA level was analyzed by qPCR (FIG. 6A) or treated and analyzed as in (FIG. 6A), except that pre-treatment of 10 μM RGDS, RGDyK (Selleck, catalog number S7844), or echistatin was performed for 10 minutes before irisin treatment. […] Sclerostin mRNA level was analyzed by qPCR (FIG. 7A). […] Epididymal fats were collected, RNAs were extracted from the tissues, and mRNA levels of the indicated genes were analyzed by qPCR. […]

As for `N=C(N)NCCC[C@@H]1NC(=O)[C@H](CCCCN)NC(=O)[C@@H](Cc2ccc(O)cc2)NC(=O)[C@H](CC(=O)O)NC(=O)CNC1=O` [cyclo RGDyK], the “effect on irisin-induced gene expression of sclerostin in osteocyte-enriched bones” value is given as “prevented” and the “effect on irisin-induced sclerostin protein level in plasma” value was “prevented”.
